Values of other authors in US9314435B2, “Stable formulations of antiplatelet agents, omega-3 fatty acids and amylose in soft gelatin capsules” (ALTERGON S.A., priority 2011, dated 2016).

Conditions: 325 mg on alternate days

CC(=O)Oc1ccccc1C(=O)O [ASA, Acetylsalicylic acid]
reduction of the risk of the first heart attack: 44%
